One assay concerns the target human Gal-3 (hGal-3) (Homo sapiens (Human), UniProt P17931). In words: competitive binding assay: biotinylated hGal-3 binding to microplate-adsorbed asialofetuin (ASF). Here is the method: If not explicitly mentioned otherwise, the inhibition data refer to the binding of biotinylated human Gal-3 (hGal-3).
(§1) Evaluation of Compound Inhibitory Activity (IC50)
The inhibitory activity of compounds is determined in competitive binding assays.
Briefly, compounds are serially diluted in DMSO (working dilutions).
(§2) Plates are incubated for 3 hours at 4° C., then washed with cold assay buffer (3×50 uL), incubated for 1 hour with 25 μL/well of a streptavidin-peroxidase solution (diluted in assay buffer to 80 ng/mL) at 4° C., followed by further washing steps with assay buffer (3×50 uL). Finally, 25 μL/well of ABTS substrate is added.
(§3) The calculated IC50 values may fluctuate depending on the daily assay performance. Fluctuations of this kind are known to those skilled in the art. IC50 values from several measurements are given as mean values.

The target in a further assay is human Gal-1 (hGal-1) (Homo sapiens (Human), UniProt P09382). Kind of assay: competitive binding assay: biotinylated hGal-1 binding to microplate-adsorbed asialofetuin (ASF). Particulars: Table 15; read-out: IC50 (Galectin-1 inhibition). Here is the method: Inhibition data of the epimers R and S of selected Examples are also listed.
as §1
The inhibitory activity of compounds is determined in competitive binding assays. This spectrophotometric assay measures the binding of biotinylated human Gal-3 (hGal-3) or human Gal-1 (hGal-1), respectively, to a microplate-adsorbed glycoprotein, asialofetuin (ASF) (Proc Natl Acad Sci USA. 2013 Mar. 26; 110(13):5052-7.).
Briefly, compounds are serially diluted in DMSO (working dilutions). ASF-coated 384 well plates are supplemented with 22.8 μL/well of biotinylated hGal-3 or hGal-1 in assay buffer (i.e. 300-1000 ng/mL biotinylated hGal-3 or hGal-1) to which 1.2 μL of compound working dilutions are added and mixed.
as §2, §3

[1] abbreviates: Table 5, read-out: IC50 (Gal-3 inhibition).
[2] abbreviates: Gal-3 inhibition, binding of biotinylated hGal-3 to ASF, mean values, read-out: IC50.

Like-named read-outs stand apart in the source and are kept apart here.

Sequence of human Gal-1 (hGal-1) (P09382 whole entry): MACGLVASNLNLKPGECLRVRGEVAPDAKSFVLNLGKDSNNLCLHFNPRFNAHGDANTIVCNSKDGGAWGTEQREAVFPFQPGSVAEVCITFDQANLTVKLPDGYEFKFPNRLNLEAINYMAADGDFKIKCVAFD
Sequence of human Gal-3 (hGal-3) (P17931 whole entry): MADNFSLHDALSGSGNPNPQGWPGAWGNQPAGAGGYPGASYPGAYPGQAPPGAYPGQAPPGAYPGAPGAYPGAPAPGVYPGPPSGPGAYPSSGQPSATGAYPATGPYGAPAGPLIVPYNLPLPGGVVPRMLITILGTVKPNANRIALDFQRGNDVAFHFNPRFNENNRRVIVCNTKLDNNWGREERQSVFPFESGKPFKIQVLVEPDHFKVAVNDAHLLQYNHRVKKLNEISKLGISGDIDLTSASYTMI

As a reminder, the IC50 is the concentration needed to halve the response being measured. With `CO[C@@H]1[C@@H](n2cc(-c3cc(F)c(F)c(F)c3)nn2)[C@@H](O)[C@@H](CO)O[C@H]1S[C@@H](c1nccnc1Cl)C1(O)CCC(F)(F)CC1` [Example 2.44.133S.I., (2R,3R,4S,5R,6S)-6-(((S)-(3-Chloropyrazin-2-yl)(4,4-difluoro-1-hydroxycyclohexyl)methyl)thio)-2-(hydroxymethyl)-5-methoxy-4-(4-(3,4,5-trifluorophenyl)-1H-1,2,3-triazol-1-yl)tetrahydro-2H-pyran-3-ol], the IC50 at human Gal-3 (hGal-3) (Table 10, 2-OMe-Gal inhibitors, read-out: IC50 (Gal-3 inhibition)) was determined as 2.71 µM; on human Gal-1 (hGal-1) it was 7.54 µM.

For “(2S,3R,4S,5R,6R)-2-(((4-Hydroxy-2,2,6,6-tetramethyltetrahydro-2H-pyran-4-yl)(2-(trifluoromethyl)phenyl)methyl)thio)-6-(hydroxymethyl)-4-(4-(3,4,5-trifluorophenyl)-1H-1,2,3-triazol-1-yl)tetrahydro-2H-pyran-3,5-diol [Example 2.42.102.]”, the IC50 came out at 0.38 µM at human Gal-3 (hGal-3) (setting [1]) and 18.5 µM at human Gal-1 (hGal-1).

As for `CC(C)(O)[C@@H](S[C@@H]1O[C@H](CO)[C@H](O)[C@H](n2cc(-c3cc(F)c(F)c(F)c3)nn2)[C@H]1O)c1ccccc1CCO` [Example 2.31.108S., (2S,3R,4S,5R,6R)-2-(((S)-2-Hydroxy-1-(2-(2-hydroxyethyl)phenyl)-2-methylpropyl)thio)-6-(hydroxymethyl)-4-(4-(3,4,5-trifluorophenyl)-1H-1,2,3-triazol-1-yl)tetrahydro-2H-pyran-3,5-diol], the results for the IC50 at human Gal-3 (hGal-3) (setting [2]) and on human Gal-1 (hGal-1) were 8.1 µM and 25.8 µM, respectively.

As for `Cc1cccnc1[C@H](S[C@@H]1O[C@H](CO)[C@H](O)[C@H](n2cc(-c3cc(F)c(F)c(F)c3)nn2)[C@H]1O)C1(O)CCOCC1` [Example 2.41.126S., (2R,3R,4S,5R,6S)-2-(Hydroxymethyl)-6-(((S)-(4-hydroxytetrahydro-2H-pyran-4-yl)(3-methylpyridin-2-yl)methyl)thio)-4-(4-(3,4,5-trifluorophenyl)-1H-1,2,3-triazol-1-yl)tetrahydro-2H-pyran-3,5-diol], the IC50 at human Gal-3 (hGal-3) (setting [2]) turned out to be 2.25 µM; at human Gal-1 (hGal-1) it was 70.4 µM.

As to `OC[C@H]1O[C@@H](S[C@@H](c2ncccc2C(F)(F)F)C2(O)CCC(F)(F)CC2)[C@H](O)[C@@H](n2cc(-c3cc(F)c(F)c(F)c3)nn2)[C@H]1O` [Example 2.44.125S., (2S,3R,4S,5R,6R)-2-(((S)-(4,4-Difluoro-1-hydroxycyclohexyl)(3-(trifluoromethyl)pyridin-2-yl)methyl)thio)-6-(hydroxymethyl)-4-(4-(3,4,5-trifluorophenyl)-1H-1,2,3-triazol-1-yl)tetrahydro-2H-pyran-3,5-diol], the IC50 at human Gal-3 (hGal-3) (setting [1]) was found to be 0.82 µM; at human Gal-1 (hGal-1) it was 3.41 µM.

In the case of `Cc1cccnc1[C@H](S[C@@H]1O[C@H](CO)[C@H](O)[C@H](n2cc(-c3cc(F)c(F)c(F)c3)nn2)[C@H]1O)C1(O)CCC(F)(F)CC1` [Example 2.44.126S., (2S,3R,4S,5R,6R)-2-(((S)-(4,4-Difluoro-1-hydroxycyclohexyl)(3-methylpyridin-2-yl)methyl)thio)-6-(hydroxymethyl)-4-(4-(3,4,5-trifluorophenyl)-1H-1,2,3-triazol-1-yl)tetrahydro-2H-pyran-3,5-diol], the concentration for half-maximal inhibition (IC50) turned out to be 3.35 µM at human Gal-3 (hGal-3) (setting [2]) and 26.5 µM on human Gal-1 (hGal-1).

In the case of `CN1CCC(O)([C@@H](S[C@@H]2O[C@H](CO)[C@H](O)[C@H](n3cc(-c4cc(F)c(F)c(F)c4)nn3)[C@H]2O)c2ccccc2C(F)(F)F)CC1` [Example 2.40.112S., (2S,3R,4S,5R,6R)-2-(((S)-(4-Hydroxy-1-methylpiperidin-4-yl)(2-(trifluoromethyl)phenyl)methyl)thio)-6-(hydroxymethyl)-4-(4-(3,4,5-trifluorophenyl)-1H-1,2,3-triazol-1-yl)tetrahydro-2H-pyran-3,5-diol], the results for the IC50 at human Gal-3 (hGal-3) (setting [1]) and on human Gal-1 (hGal-1) were 3.95 µM and 21.7 µM, respectively.

(Values after patent US12404295B2, “(Hetero)aryl-methyl-thio-beta-D-galactopyranoside derivatives” (Idorsia Pharmaceuticals Ltd, priority 2019, dated 2025).)
